The nature of the assay: In vitro inhibition of calcium phosphate crystallization in human plasma (spectrophotometric assay). Type of assay: biochemical. The conditions noted are these: 0-100 μM, 1.5 mM phosphate, 12.5 mM calcium, pH 7.4, absorbance 550 nm, slope 6-24 min, read-out: Relative Potency. The method, then: The in vitro efficacy of the IP4-4,6 substituted derivatives (e.g., Compounds 1 to 53) of the invention on the inhibition of calcium phosphate crystallization in human plasma samples was evaluated according to a spectrophotometric assay previously described in the art (Ferrer M, et al., Sci Rep 2017; 7:6858, doi:10.1038/s41598-017-07203-x).
A 96-well plate was employed. Plasma was spiked (1 volume of the IP4-4,6 substituted derivatives of the invention per 19 volumes of plasma) with increasing concentrations of the derivatives in the range of 0-100 μM. Plasma was then centrifuged at 10,000 g at rt and subsequently mixed with a mixture of 5 mM hydrogen phosphate and 41.67 mM calcium to attain final concentrations of 1.5 mM phosphate and 12.5 mM calcium, respectively. All reagent solutions were filtered, and pH adjusted to 7.4.
Crystallization of calcium phosphate was monitored spectrophotometrically for 30 min at rt by measuring the increments in absorbance at 550 nm using the Biotek Powerwave XS Microplate spectrophotometer (BioTek Instruments, Inc., Winooski, VT, US). The plate was incubated at rt in an orbital shaker and absorbance measured every 3 min.
Plasma crystallization was assessed based on slope measurement in the linear range between 6 and 24 min from plots of increase in absorbance versus logarithm of time. The efficacy of different myo-inositol phosphates derivatives in preventing in vitro formation of calcium phosphate crystals was assessed in human plasma samples using the slopes obtained between 6- and 24-min. Inhibition of crystallization was measured by comparing the slopes of the control sample (blank plasma) with those of samples containing the inhibitor as shown below: […]

Counter-ions that a name gives are not always drawn. Some results are limits rather than exact numbers.

In the case of `O=C(O)CCc1cn(CCCOC2C(OP(=O)(O)O)C(OCCCn3cc(CCC(=O)O)nn3)C(OP(=O)(O)O)C(OP(=O)(O)O)C2OP(=O)(O)O)nn1` (centres unmarked) [Compound 35, 4,6-O-bis(3-(4-(2-carboxyethyl)-1H-1,2,3-triazol-1-yl)propyl)-myo-inositol-1,2,3,5-tetrakis(phosphate) decasodium salt], the EC50 was not above 5 µM.
Then `COC(=O)NCCCOC1C(OP(=O)(O)O)C(OCCCNC(=O)OC)C(OP(=O)(O)O)C(OP(=O)(O)O)C1OP(=O)(O)O` (centres unmarked) [Compound 24, 4,6-O-bis(3-((methoxycarbonyl)amino)propyl)-myo-inositol-1,2,3,5-tetrakis(phosphate) octasodium salt], with more than 10 µM; and `CCCCCCCOC1C(OP(=O)(O)O)C(OCCCCCCC)C(OP(=O)(O)O)C(OP(=O)(O)O)C1OP(=O)(O)O` (centres unmarked) [Compound 5, 4,6-O-diheptyl-myo-inositol-1,2,3,5-tetrakis(phosphate) octasodium salt], with not above 5 µM; and `CCCO[C@@H]1[C@@H](OP(=O)(O)O)[C@H](OCCC)[C@@H](OP(=O)(O)O)[C@@H](OP(=O)(O)O)[C@H]1OP(=O)(O)O` [Compound 4, 4,6-O-dipropyl-myo-inositol-1,2,3,5-tetrakis(phosphate) octasodium salt], with not above 5 µM.
Then `O=C(O)c1cn(CCCCCCOC2C(OP(=O)(O)O)C(OCCCCCCn3cc(C(=O)O)nn3)C(OP(=O)(O)O)C(OP(=O)(O)O)C2OP(=O)(O)O)nn1` (centres unmarked) [Compound 40, 4,6-O-(6-(4-carboxy-1H-1,2,3-triazol-1-yl)hexyl)-myo-inositol-1,2,3,5-tetrakis(phosphate) decasodium salt], with not above 5 µM; and `O=P(O)(O)OC1C(OCCCc2cccc(C(F)(F)F)c2)C(OP(=O)(O)O)C(OP(=O)(O)O)C(OP(=O)(O)O)C1OCCCc1cccc(C(F)(F)F)c1` (centres unmarked) [Compound 44, 4,6-O-bis(3-(3-(trifluoromethyl)phenyl)propyl)-myo-inositol-1,2,3,5-tetrakis(phosphate) octasodium salt], with more than 10 µM; and `O=P(O)(O)OC1C(OCCC2CC2)C(OP(=O)(O)O)C(OP(=O)(O)O)C(OP(=O)(O)O)C1OCCC1CC1` (centres unmarked) [Compound 28, 4,6-O-bis(2-cyclopropylethyl)-myo-inositol-1,2,3,5-tetrakis(phosphate) octasodium salt], with not above 5 µM.
Then `COCCCCCCn1cc(COC2C(OP(=O)(O)O)C(OCc3cn(CCCCCCOC)nn3)C(OP(=O)(O)O)C(OP(=O)(O)O)C2OP(=O)(O)O)nn1` (centres unmarked) [Compound 33, 4,6-O-bis((1-(6-methoxyhexyl)-1H-1,2,3-triazol-4-yl)methyl)-myo-inositol-1,2,3,5-tetrakis(phosphate) octasodium salt], with 5 to 10 µM.
For `COCc1cn(CCCCOC2C(OP(=O)(O)O)C(OCCCCn3cc(COC)nn3)C(OP(=O)(O)O)C(OP(=O)(O)O)C2OP(=O)(O)O)nn1` (centres unmarked) [Compound 37, 4,6-O-bis(4-(4-(methoxymethyl)-1H-1,2,3-triazol-1-yl)butyl)-myo-inositol-1,2,3,5-tetrakis(phosphate) octasodium salt], the EC50 is 5 to 10 µM.
Then `COC(=O)NCCCCCOC1C(OP(=O)(O)O)C(OCCCCCNC(=O)OC)C(OP(=O)(O)O)C(OP(=O)(O)O)C1OP(=O)(O)O` (centres unmarked) [Compound 25, 4,6-O-bis(5-((methoxycarbonyl)amino)pentyl)-myo-inositol-1,2,3,5-tetrakis(phosphate) octasodium salt], with not above 5 µM.
For `O=P(O)(O)O[C@@H]1[C@@H](OCCC2CCCC2)[C@H](OP(=O)(O)O)[C@H](OP(=O)(O)O)[C@H](OP(=O)(O)O)[C@H]1OCCC1CCCC1` [Compound 29, 4,6-O-bis(2-cyclopentylethyl)-myo-inositol-1,2,3,5-tetrakis(phosphate) octasodium salt] the value was not above 5 µM; for `O=C(NCCCCCOC1C(OP(=O)(O)O)C(OCCCCCNC(=O)c2cccs2)C(OP(=O)(O)O)C(OP(=O)(O)O)C1OP(=O)(O)O)c1cccs1` (centres unmarked) [Compound 49, 4,6-O-bis(5-(thiophene-2-carboxamido)pentyl)-myo-inositol-1,2,3,5-tetrakis(phosphate) octasodium salt], 5 to 10 µM.
Regarding `O=C(NCCCOC1C(OP(=O)(O)O)C(OCCCNC(=O)NC2CCCC2)C(OP(=O)(O)O)C(OP(=O)(O)O)C1OP(=O)(O)O)NC1CCCC1` (centres unmarked) [Compound 47, 4,6-O-bis(3-(3-cyclopentylureido)propyl)-myo-inositol-1,2,3,5-tetrakis(phosphate) octasodium salt], the EC50 is not above 5 µM.
Then `O=C(NCCCCCOC1C(OP(=O)(O)O)C(OCCCCCNC(=O)c2ccccc2)C(OP(=O)(O)O)C(OP(=O)(O)O)C1OP(=O)(O)O)c1ccccc1` (centres unmarked) [Compound 48, 4,6-O-bis(5-benzamidopentyl)-myo-inositol-1,2,3,5-tetrakis(phosphate) octasodium salt], with more than 10 µM.
Consider `CCCCCOC1C(OP(O)(O)=S)C(OCCCCC)C(OP(O)(O)=S)C(OP(O)(O)=S)C1OP(O)(O)=S` (centres unmarked) [Compound 50, 4,6-O-dipentyl-myo-inositol-1,2,3,5-tetrakis(thiophosphate) octasodium salt], for which the EC50 was more than 10 µM.
`COCCCn1cc(CO[C@@H]2[C@@H](OP(=O)(O)O)[C@H](OCc3cn(CCCOC)nn3)[C@@H](OP(=O)(O)O)[C@@H](OP(=O)(O)O)[C@H]2OP(=O)(O)O)nn1` [Compound 32, 4,6-O-bis((1-(3-methoxypropyl)-1H-1,2,3-triazol-4-yl)methyl)-myo-inositol-1,2,3,5-tetrakis(phosphate) octasodium salt]: the EC50 is not above 5 µM.
For `O=C(NCCCOC1C(OP(=O)(O)O)C(OCCCNC(=O)Nc2ccccc2)C(OP(=O)(O)O)C(OP(=O)(O)O)C1OP(=O)(O)O)Nc1ccccc1` (centres unmarked) [Compound 46, 4,6-O-bis(3-(3-phenylureido)propyl)-myo-inositol-1,2,3,5-tetrakis(phosphate) octasodium salt] the value was 5 to 10 µM; for `COCc1cn(CCCCCOC2C(OP(=O)(O)O)C(OCCCCCn3cc(COC)nn3)C(OP(=O)(O)O)C(OP(=O)(O)O)C2OP(=O)(O)O)nn1` (centres unmarked) [Compound 38, 4,6-O-bis(5-(4-(methoxymethyl)-1H-1,2,3-triazol-1-yl)pentyl)-myo-inositol-1,2,3,5-tetrakis(phosphate) octasodium salt], not above 5 µM.
For `COCCCOC1C(OP(=O)(O)O)C(OCCCOC)C(OP(=O)(O)O)C(OP(=O)(O)O)C1OP(=O)(O)O` (centres unmarked) [Compound 10, 4,6-O-bis(3-methoxypropyl)-myo-inositol-1,2,3,5-tetrakis(phosphate) octasodium salt] the value was not above 5 µM; for `O=C(O)CCCCCCCCCCOC1C(OP(=O)(O)O)C(OCCCCCCCCCCC(=O)O)C(OP(=O)(O)O)C(OP(=O)(O)O)C1OP(=O)(O)O` (centres unmarked) [Compound 19, 4,6-O-bis(10-carboxydecyl)-myo-inositol-1,2,3,5-tetrakis(phosphate) decasodium salt], more than 10 µM; for `COc1ccc(CCCOC2C(OP(=O)(O)O)C(OCCCc3ccc(OC)cc3)C(OP(=O)(O)O)C(OP(=O)(O)O)C2OP(=O)(O)O)cc1` (centres unmarked) [Compound 43, 4,6-O-bis(3-(4-methoxyphenyl)propyl)-myo-inositol-1,2,3,5-tetrakis(phosphate) octasodium salt], 5 to 10 µM.
Regarding `O=P(O)(O)O[C@@H]1[C@@H](OCCCC(F)(F)F)[C@H](OP(=O)(O)O)[C@H](OP(=O)(O)O)[C@H](OP(=O)(O)O)[C@H]1OCCCC(F)(F)F` [Compound 22, 4,6-O-bis(4,4,4-trifluorobutyl)-myo-inositol-1,2,3,5-tetrakis(phosphate) octasodium salt], the EC50 was not above 5 µM.
Then `CC(C)CCCOC1C(OP(=O)(O)O)C(OCCCC(C)C)C(OP(=O)(O)O)C(OP(=O)(O)O)C1OP(=O)(O)O` (centres unmarked) [Compound 21, 4,6-O-bis(4-methylpentyl)-myo-inositol-1,2,3,5-tetrakis(phosphate) octasodium salt], with more than 10 µM; and `COCc1cn(CCCOC2C(OP(=O)(O)O)C(OCCCn3cc(COC)nn3)C(OP(=O)(O)O)C(OP(=O)(O)O)C2OP(=O)(O)O)nn1` (centres unmarked) [Compound 36, 4,6-O-bis(3-(4-(methoxymethyl)-1H-1,2,3-triazol-1-yl)propyl)-myo-inositol-1,2,3,5-tetrakis(phosphate) octasodium salt], with 5 to 10 µM; and `O=C(O)CCCC(=O)NCCCOC1C(OP(=O)(O)O)C(OCCCNC(=O)CCCC(=O)O)C(OP(=O)(O)O)C(OP(=O)(O)O)C1OP(=O)(O)O` (centres unmarked) [Compound 45, 4,6-O-bis((3-(4-carboxybutanamido)propyl))-myo-inositol-1,2,3,5-tetrakis(phosphate) decasodium salt], with not above 5 µM.
For `O=P(O)(O)OC1C(OCCCCCC(F)(F)F)C(OP(=O)(O)O)C(OP(=O)(O)O)C(OP(=O)(O)O)C1OCCCCCC(F)(F)F` (centres unmarked) [Compound 23, 4,6-O-bis(6,6,6-trifluorohexyl)-myo-inositol-1,2,3,5-tetrakis(phosphate) octasodium salt] the value was more than 10 µM.
